IC50, IC20 and Activity data for 15 molecules are collected here from ChEMBL document CHEMBL5344416, “Phenothiazines as anti-cancer agents: SAR overview and synthetic strategies” (Eur J Med Chem, 2023).

The test system of data set [1] is LoVo. The data set is described as follows: Antiproliferative activity against human LoVo cells assessed as reduction in cell viability incubated for 48 hrs by MTT assay. In kind it is functional, cell-based. (In general: Tetrazolium assays rely on reduction of a dye to a coloured formazan, in cell work by metabolically active cells.)
Data set [2] has as its system LoVo. Description: Cytotoxicity against human LoVo cells assessed as reduction in cell viability incubated for 72 hrs by MTT assay. The data set is classed as functional.
The nature of data set [3]: Antiproliferative activity against human Lovo/DX cells assessed as reduction in cell viability. The data set is classed as functional, cell-based.
A short description of data set [4]: Cytotoxicity against human Lovo/DX cells assessed as reduction in cell viability incubated for 72 hrs by MTT assay. The data set is classed as functional.
Data set [5] concerns SNB-19. The data set is described as follows: Anticancer activity against human SNB-19 cells assessed as reduction in cell growth incubated for 48 hrs by SRB assay. The data set is classed as functional, cell-based. Conditions: SNB-19, 48 h. (Sulforhodamine B stains cellular protein and so reports cell mass.)
The subject of data set [6] is TC-32. Description: Anticancer activity against human TC-32 cells assessed as reduction in cell growth incubated for 48 hrs by SRB assay. The data set is classed as functional, cell-based. Conditions: TC-32, 48 h.
Data set [7] concerns MDA-MB-231. The data set is described as follows: Anticancer activity against human MDA-MB-231 cells assessed as reduction in cell viability measured after 72 hrs by MTT assay. Conditions: MDA-MB-231, 72 h. The data set is classed as functional, cell-based.
For data set [8], the system named is SNB-19. Description: Antiproliferative activity against human SNB-19 cells assessed as reduction in cell proliferation incubated for 72 hrs by WST-1 assay. Conditions: SNB-19, 72 h. In kind it is functional, cell-based.
For data set [9], the system named is TC-32. Description: Antiproliferative activity against human TC-32 cells assessed as reduction in cell proliferation incubated for 72 hrs by WST-1 assay. Conditions: TC-32, 72 h. In kind it is functional, cell-based.
Data set [10] concerns MDA-MB-231. The data set is described as follows: Antiproliferative activity against human MDA-MB-231 cells assessed as reduction in cell proliferation incubated for 72 hrs by WST-1 assay. The data set is classed as functional, cell-based. Conditions: MDA-MB-231, 72 h.
For data set [11], the system named is MCF7. The data set is described as follows: Anticancer activity against human MCF7 cells assessed as cell growth inhibition incubated for 48 hrs by MTT assay. In kind it is functional, cell-based. The following applies: MCF7, 48 h.
In data set [12] the test system is MKN-28. The data set is described as follows: Antiproliferative activity against human MKN-28 cells assessed as reduction in cell viability by MTT assay. The data set is classed as functional, cell-based.
Data set [13] has as its system MGC-803. Description: Antiproliferative activity against human MGC-803 cells assessed as reduction in cell growth by MTT assay. The data set is classed as functional, cell-based.
Data set [14] concerns MKN-45. Description: Antiproliferative activity against human MKN-45 cells assessed as cell growth inhibition by MTT assay. The data set is classed as functional, cell-based.
Data set [15] deals with MCF7. The data set is described as follows: Cytotoxicity against human MCF7 cells assessed as reduction in cell growth incubated for 96 hrs by MTT assay. The data set is classed as functional, cell-based. The following applies: MCF7, 96 h.
Data set [16] deals with MDA-MB-231. The data set is described as follows: Cytotoxicity against human MDA-MB-231 cells assessed as reduction in cell viability incubated for 24 hrs by MTT assay. In kind it is functional, cell-based. The following applies: MDA-MB-231, 24 h.
Data set [17] deals with MDA-MB-468. The data set is described as follows: Cytotoxicity against human MDA-MB-468 cells assessed as cell viability measured after 3 days by Cell Titer Blue assay. In kind it is functional, cell-based. Conditions: MDA-MB-468, 72 h. Background: The colour change of resazurin is a common sign of viable cells or microbes.
Data set [18] concerns SK-BR-3. Description: Cytotoxicity against human SK-BR-3 cells assessed as cell growth inhibition incubated for 48 hrs by WST-1 assay. In kind it is functional, cell-based. Conditions: SK-BR-3, 48 h.
The test system of data set [19] is T47D. The data set is described as follows: Cytotoxicity against human T47D cells assessed as reduction in cell viability after 48 hrs by MTT assay. The data set is classed as functional, cell-based.
Data set [20] in a line: Cytotoxicity in human MCF-10A cells assessed as reduction in cell viability incubated for 72 hrs by MTT assay. The data set is classed as toxicity, cell-based.
Data set [21] concerns MCF7. Description: Antitumor activity against human MCF7 cells assessed as inhibition of cell growth at 1000 ug measured after 48 hrs by spectrophotometric analysis relative to control. In kind it is functional. More on the design: scale not given: the % may be the effect or the level left. The following applies: dose 1000 µg.
Data set [22] has as its system MCF7. Description: Antitumor activity against human MCF7 cells assessed as increase in LDH level at 1000 ug relative to control. The following applies: dose 1000 µg. The data set is classed as functional.
Data set [23] relates to TC-32. Description: Cytotoxicity against human TC-32 cells assessed as reduction in cell viability incubated for 48 hrs by CellTiter-Blue reagent based […] assay. In kind it is functional. Conditions: TC-32, 48 h.
In data set [24] the test system is SNB-19. Description: Antiproliferative activity against human SNB-19 cells assessed as cell growth inhibition incubated for 72 hrs by WST-1 assay. The data set is classed as functional, cell-based. Conditions: SNB-19, 72 h.
Data set [25] has as its system T47D. Description: Antiproliferative activity against human T47D cells assessed as cell growth inhibition after 48 hrs by SRB assay. In kind it is functional, cell-based.
The test system of data set [26] is MRC5. The data set is described as follows: Cytotoxicity against human MRC5 cells assessed as reduction in cell growth incubated for 48 hrs by CCK8 assay. In kind it is functional, cell-based. Conditions: MRC5, 48 h.
The test system of data set [27] is SW1990. Description: Antiproliferative activity against human SW1990 cells assessed as reduction in cell viability. In kind it is functional, cell-based.
In data set [28] the test system is ASPC1. The data set is described as follows: Antiproliferative activity against human AsPC1 cells assessed as inhibition of cell proliferation incubated for 6 days by CCK8 assay. The data set is classed as functional, cell-based. The following applies: ASPC1, 144 h.
Data set [29] deals with MCF7. Description: Anticancer activity against human MCF7 cells assessed as inhibition of cell growth incubated for 48 hrs by MTT assay. The data set is classed as functional, cell-based. The following applies: MCF7, 48 h.
The test system of data set [30] is SW1990. The data set is described as follows: Anticancer activity against human SW1990 cells assessed as reduction in cell viability incubated for 72 hrs by MTT assay. The data set is classed as functional, cell-based. Conditions: SW1990, 72 h.
Data set [31] relates to ASPC1. Description: Anticancer activity against human ASPC1 cells assessed as reduction in cell growth incubated for 72 hrs by MTT assay. The data set is classed as functional, cell-based. Conditions: ASPC1, 72 h.
Data set [32] is described as follows: Antioxidant activity assessed as DPPH radical scavenging activity incubated for 30 mins. The data set is classed as functional.
Data set [33] concerns MCF7. The data set is described as follows: Antiproliferative activity against human MCF7 cells assessed as cell growth inhibition by MTT assay. The data set is classed as functional, cell-based.

For `OCCOCCN1CCN(CC(O)CN2c3ccccc3Sc3ccc(C(F)(F)F)cc32)CC1` (stereo not given), the concentration for half-maximal inhibition (IC50) (usually the midpoint of a concentration-inhibition curve) in data set [1] was found to be 50 µM; in data set [3] it was 20 µM. The IC20 (usually the concentration at which the effect reaches the 20% level) in data set [2] is 6 µM; in data set [4], 4 µM.

On to `C(#CCN1c2ccncc2Sc2ncccc21)CN1CCN(c2ccccc2)CC1`, for which the IC50 worked out at 0.45 µM in [5], 4.57 µM in data set [6] and 0.74 µM in data set [7].

`CCN(CC)CCN1c2ncccc2Sc2cccnc21`: the IC50 came out at 0.33 µM in data set [8], 14.4 µM in data set [9] and 2.13 µM in [10].

For `CSc1ccc2c(c1)N(CCCn1ccc(=O)[nH]c1=O)c1ccccc1S2`, in data set [11], the IC50 was 1.35 µM.

Consider `COc1ccc(-n2cc(CN3c4ccccc4Sc4ccccc43)nn2)c([N+](=O)[O-])c1`, for which the figures for the 50% inhibitory concentration (IC50) in [12], in data set [13] and in data set [14] were 2.7 µM, 1.2 µM and 3.5 µM, respectively.

In the case of `CCN1c2ccc(-c3ccccc3)cc2Sc2cc(-c3nnc4ccccn34)ccc21`, the IC50 in data set [15] was found to be 6.2 µM; in data set [16], 19.4 µM; in [17], 9.7 µM; in [18], 31.5 µM; in data set [19], 11.7 µM. Besides, the IC50 at 72 h in [20] is 13.4 µM.

On to `CN1c2ccccc2Sc2cc(/C=N/NC(=O)Cn3c4ccccc4c4ccccc43)ccc21`, for which the Activity in [21] and in data set [22] was 48% each time.

For the molecule `CN(CCO)CC(O)CN1c2ccccc2Sc2ccc(C(F)(F)F)cc21` (stereo not given), the IC50 turned out to be 50 µM in [1] and 42 µM in data set [3]. In addition, the 20% effect concentration (IC20) in data set [2] was 12 µM; in data set [4], 8 µM.

`CN1CCN(CC#CCN2c3ccncc3Sc3ccncc32)CC1`: the IC50 turned out to be 35 µM in data set [23], 21.2 µM in data set [24] and 9.6 µM in [25].

Consider `CC(=O)c1ccc(N2CCN(CC(O)CN3c4ccccc4Sc4ccc(C(F)(F)F)cc43)CC2)cc1` (stereo not given), for which the IC50 in [1] and in [3] was 100 µM throughout. Further, the 20% effect concentration (IC20) in [2] was determined as 3 µM; in [4], 4 µM.

With `CCN1c2ccccc2Sc2cc(C3NC(=O)NC(C)=C3C(=O)Nc3ccccc3)ccc21` (stereo not given), the IC50 in data set [26] is 83.7 µM; in [27], 22.8 µM; in data set [28], 15.7 µM.

Take `OCCN1CCN(CCCN2c3ccccc3Sc3ccc(C(F)(F)F)cc32)CC1` [FLUPHENAZINE]: the half-maximal inhibitory concentration (IC50) in data set [1] and in data set [3] was 80 µM each time. The IC20 in [2] and in [4] was 22 µM each time.

Take `COCCSc1nnc(CN2c3ccccc3Sc3ccc(Cl)cc32)s1`: in data set [29], the IC50 stood at 3.45 µM.

Consider `CCCCCN1c2ccccc2Sc2cc(/C=C(\C#N)C(N)=O)ccc21`, for which the IC50 in data set [30] turned out to be 13.3 µM; in data set [31], 25.3 µM; in data set [32] it was 37.3 µM.

Consider `CN(C)CCN1CCN(CCCN2c3ccccc3Sc3ccc(C(F)(F)F)cc32)CC1`, for which the concentration for half-maximal inhibition (IC50) in data set [33] was 0.42 µM.
